From PubChem BioAssay (NCI)
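Tested at 5 concentrations; 48 h exposure; 96-well plates; endpoints linearly interpolated, else capped at highest concentration. Abbreviation: GI50, concentration required for 50% inhibition of growth. TGI denotes the concentration required for complete inhibition of growth.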

Legend:
Experiment in all cases: growth of human tumour cells (NCI), 48 h
[1] = system: SF-295 CNS
[2] = system: UO-31 renal
[3] = system: K-562 leukemia
[4] = system: KM12 colon
[5] = system: SK-MEL-5 melanoma
[6] = system: ACHN renal
[7] = system: HOP-92 NSCLC
[8] = system: SN12C renal
[9] = system: SK-MEL-2 melanoma
[10] = system: NCI/ADR-RES ovarian
[11] = system: NCI-H522 lung
[12] = system: SNB-75 CNS
[13] = system: SW-620 colon
[14] = system: M14 melanoma
[15] = system: HT29 colon
[16] = system: MALME-3M melanoma
[17] = system: PC-3 prostate
[18] = system: RPMI-8226 leukemia
[19] = system: OVCAR-8 ovarian
[20] = system: MDA-MB-468 breast
[21] = system: RXF 393 renal
[22] = system: MDA-MB-231 breast
[23] = system: DU-145 prostate
[24] = system: MOLT-4 leukemia
[25] = system: UACC-62 melanoma
[26] = system: U251 CNS
[27] = system: SNB-19 CNS
[28] = system: TK-10 renal
[29] = system: SK-MEL-28 melanoma
[30] = system: IGROV1 ovarian
[31] = system: EKVX NSCLC
[32] = system: SK-OV-3 ovarian
[33] = system: SF-539 CNS
[34] = system: T-47D breast
[35] = system: HCT-15 colon
[36] = system: OVCAR-5 ovarian
[37] = system: 786-0 renal
[38] = system: HCC-2998 colon
[39] = system: CAKI-1 renal
[40] = system: MDA-MB-435
[41] = system: SF-268 CNS
[42] = system: NCI-H460 lung
[43] = system: NCI-H23 lung
[44] = system: MCF7 breast
[45] = system: OVCAR-4 ovarian
[46] = system: HS 578T breast
[47] = system: UACC-257 melanoma
[48] = system: SR leukemia
[49] = system: COLO 205 colon
[50] = system: A498 renal
[51] = system: HL-60(TB) leukemia
[52] = system: HOP-62 NSCLC
[53] = system: NCI-H226 lung
[54] = system: OVCAR-3 ovarian
[55] = system: A549 NSCLC
[56] = system: BT-549 breast

Q: What does the source list for `COc1ccc(-c2nc(Nc3ccccc3S(N)(=O)=O)c3ccccc3n2)cc1`?
A: GI50 [1]: 3 µM; TGI [1]: 13.2 µM; GI50 [2]: 9.42 µM; TGI [2]: 33.4 µM; GI50 [3]: 4.49 µM; TGI [3]: > 100 µM; GI50 [4]: 4.27 µM; TGI [4]: > 100 µM; GI50 [5]: 2.76 µM; TGI [5]: 10.4 µM; GI50 [6]: 6.39 µM; TGI [6]: 28.3 µM; GI50 [7]: 7.68 µM; TGI [7]: 71.3 µM; GI50 [8]: > 100 µM; TGI [8]: > 100 µM; GI50 [9]: > 100 µM; TGI [9]: > 100 µM; GI50 [10]: 3.19 µM; TGI [10]: 16.6 µM; GI50 [11]: 4.19 µM; TGI [11]: 25.7 µM; GI50 [12]: 2.32 µM; TGI [12]: > 100 µM; GI50 [13]: 4.19 µM; TGI [13]: 97.9 µM; GI50 [14]: 6.06 µM; TGI [14]: > 100 µM; GI50 [15]: 4 µM; TGI [15]: 32.2 µM; GI50 [16]: 5.24 µM; TGI [16]: 50.4 µM; GI50 [17]: 7.21 µM; TGI [17]: > 100 µM; GI50 [18]: 4.35 µM; TGI [18]: > 100 µM; GI50 [19]: 6.41 µM; TGI [19]: > 100 µM; GI50 [20]: 2.55 µM; TGI [20]: 8.01 µM; GI50 [21]: 1.91 µM; TGI [21]: 7.27 µM; GI50 [22]: 2.14 µM; TGI [22]: 5.77 µM; GI50 [23]: 4.67 µM; TGI [23]: 32.9 µM; GI50 [24]: 4.41 µM; TGI [24]: > 100 µM; GI50 [25]: 8.84 µM; TGI [25]: > 100 µM; GI50 [26]: 3.31 µM; TGI [26]: 14.2 µM; GI50 [27]: 18 µM; TGI [27]: 63.3 µM; GI50 [28]: 21.7 µM; TGI [28]: 81.3 µM; GI50 [29]: 7.31 µM; TGI [29]: > 100 µM; GI50 [30]: 99.2 µM; TGI [30]: > 100 µM; GI50 [31]: 5.35 µM; TGI [31]: 28.4 µM; GI50 [32]: 15.7 µM; TGI [32]: 71.3 µM; GI50 [33]: 3.05 µM; TGI [33]: 12.2 µM; GI50 [34]: 3.47 µM; TGI [34]: > 100 µM; GI50 [35]: 3.74 µM; TGI [35]: 13.4 µM; GI50 [36]: 46.1 µM; TGI [36]: > 100 µM; GI50 [37]: 3.75 µM; TGI [37]: 14.6 µM; GI50 [38]: 3.46 µM; TGI [38]: 13.7 µM; GI50 [39]: 3.93 µM; TGI [39]: 42.5 µM; GI50 [40]: 4.36 µM; TGI [40]: > 100 µM; GI50 [41]: 3.62 µM; TGI [41]: 32.1 µM; GI50 [42]: 2.79 µM; TGI [42]: 8.9 µM; GI50 [43]: 2.4 µM; TGI [43]: 7.91 µM; GI50 [44]: 2.55 µM; TGI [44]: 15.1 µM; GI50 [45]: 28.9 µM; TGI [45]: > 100 µM; GI50 [46]: 4.28 µM; TGI [46]: > 100 µM; GI50 [47]: > 100 µM; TGI [47]: > 100 µM; GI50 [48]: 6.28 µM; TGI [48]: > 100 µM; GI50 [49]: 5.29 µM; TGI [49]: > 100 µM; GI50 [50]: 10.5 µM; TGI [50]: 57.6 µM; GI50 [51]: > 100 µM; TGI [51]: > 100 µM; GI50 [52]: 12.8 µM; TGI [52]: 45.4 µM; GI50 [53]: 2.04 µM; TGI [53]: 7.13 µM; GI50 [54]: 14.3 µM; TGI [54]: > 100 µM; GI50 [55]: 3.7 µM; TGI [55]: 30.9 µM; GI50 [56]: 22.5 µM; TGI [56]: > 100 µM
